# From PMC11671526, “β-caryophyllene sensitizes hepatocellular carcinoma cells to chemotherapeutics and inhibits cell malignancy through targeting MAPK signaling pathway” (Frontiers in Pharmacology, 2024)
# Test system: HepG2 cells
# Assay: RNA-seq transcriptome analysis of differentially expressed genes
# Format: cell-based, human
# Method: The quality and concentration of RNA were examined by MOPS RNA electrophoresis and Eppendorf BioSpectrometer. The transcriptome analysis was performed by BGI-Wuhan China. The RNA-seq dataset of this study is accessible in the Gene Expression Omnibus (GEO) with an access number of GSE276099. The sequence library for each sample was prepared using the BGISEQ-500 platform with a 50-bp single-end (SE50) format. […]2.2.1) was used to align the clean reads to the reference genome and alignment of the clean reads to the reference genes was carried out using Bowtie2 (v2.4.5) ([Langmead and Salzberg, 2012]; [Kim et al., 2015]). Gene expression levels were calculated by RSEM (v1.3.1) ([Li and Dewey, 2011]). Analysis of differential gene expression was performed using edgeR in the Bioconductor software package ([Robinson et al., 2010]). Using a standard protocol, the RNA samples were also examined by reverse transcription and quantitative polymerase chain reaction (RT-qPCR). In brief, for reverse transcription, total RNA (1 μg) and gDNA wiper Mix were incubated at 42°C for 2 min. The samples were immediately incubated with a master mix containing 10 pmol/μL of poly (dT) primers at 37°C for 15 min and 85°C for 5 s. To detect the expression of specific genes by qPCR analysis, gene-specific primers (shown in Supplementary Table S1) were mixed with the ChamQ Universal SYBER qPCR Master Mix and the reaction was conducted using the Roche Lightcycler 480. The GAPDH value was used to normalize the results of each gene. The RNA-seq data of BCP-treated HepG2 cells were screened for DEGs. Gene symbols were turned into Enterz ID using the org.Hs.eg.db Bio-conductor R package. The cluster profiler (v4.6.2) package was used to perform the Kyoto Encyclopedia of Genes and Genomes (KEGG) and Gene Ontology (GO) enrichment analyses ([Wu et al., 2021]). Following the Transcript per million (TPM) data of the dataset, the line chart, and heatmap were plotted using ggplot2 and pheatmap R packages, respectively.
# [1] = HepG2, 150 µM BCP 24 h vs ethanol, RNA-seq DEG
# [2] = HepG2, 150 µM BCP 24 h vs ethanol, FDR ≤ 0.05, 1.5-fold change
compound,measurement,setting,value
"C=C1CC/C=C(\C)CC[C@@H]2[C@@H]1CC2(C)C [BCP, β-caryophyllene]",TSHZ2 logFC,"BCP vs control HepG2, RNA-seq",0.586
same,TSPAN18 change,"BCP vs control HepG2, RNA-seq",Up
same,TSPAN18 logFC,"BCP vs control HepG2, RNA-seq",0.6055
same,TTC21A change,"BCP vs control HepG2, RNA-seq",Up
same,TTC21A logFC,"BCP vs control HepG2, RNA-seq",1.034
same,TTC30B change,"BCP vs control HepG2, RNA-seq",Up
same,TTC30B logFC,"BCP vs control HepG2, RNA-seq",1.0891
same,TYW1B change,"BCP vs control HepG2, RNA-seq",Down
same,TYW1B logFC,"BCP vs control HepG2, RNA-seq",-0.7579
same,VEPH1 change,"BCP vs control HepG2, RNA-seq",Up
same,VEPH1 logFC,"BCP vs control HepG2, RNA-seq",0.6882
same,WASF3 change,"BCP vs control HepG2, RNA-seq",Down
same,WASF3 logFC,"BCP vs control HepG2, RNA-seq",-1.027
same,WDR86 change,"BCP vs control HepG2, RNA-seq",Down
same,WDR86 logFC,"BCP vs control HepG2, RNA-seq",-0.8076
same,ZNF165 change,"BCP vs control HepG2, RNA-seq",Up
same,ZNF165 logFC,"BCP vs control HepG2, RNA-seq",0.918
same,ZNF284 change,"BCP vs control HepG2, RNA-seq",Down
same,ZNF284 logFC,"BCP vs control HepG2, RNA-seq",-0.7229
same,ZNF341 change,"BCP vs control HepG2, RNA-seq",Down
same,ZNF341 logFC,"BCP vs control HepG2, RNA-seq",-0.6282
same,ADORA2A expression change (BCP_treatment),[1],Down
same,ADRA2C expression change (BCP_treatment),[1],Down
same,ALYREF expression change (BCP_treatment),[1],Down
same,ANK1 expression change (BCP_treatment),[1],Down
same,ANKFN1 expression change (BCP_treatment),[1],Down
same,ARTN expression change (BCP_treatment),[1],markedly downregulated and Down
same,B3GNT4 expression change (BCP_treatment),[1],Down
same,BICDL1 expression change (BCP_treatment),[1],Down
same,BOC expression change (BCP_treatment),[1],Down
same,BOLA2B expression change (BCP_treatment),[1],Down
same,CA5B expression change (BCP_treatment),[1],Down
same,CACNA1E expression change (BCP_treatment),[1],markedly downregulated and Down
same,CAMK2N2 expression change (BCP_treatment),[1],Down
same,CCDC86 expression change (BCP_treatment),[1],Down
same,CCL26 expression change (BCP_treatment),[1],Down
same,CHST6 expression change (BCP_treatment),[1],Down
same,CLIP2 expression change (BCP_treatment),[1],Down
same,CYP26B1 expression change (BCP_treatment),[1],Down
same,DPF1 expression change (BCP_treatment),[1],Down
same,EN2 expression change (BCP_treatment),[1],Down
same,FAM222A expression change (BCP_treatment),[1],Down
same,FBXL22 expression change (BCP_treatment),[1],Down
same,FBXO27 expression change (BCP_treatment),[1],Down
same,FBXO44 expression change (BCP_treatment),[1],Down
same,FRMD3 expression change (BCP_treatment),[1],Down
same,FUT3 expression change (BCP_treatment),[1],Down
same,GBP2 expression change (BCP_treatment),[1],Down
same,GNAZ expression change (BCP_treatment),[1],Down
same,H1-2 expression change (BCP_treatment),[1],Down
same,H2BC11 expression change (BCP_treatment),[1],Down
same,H2BC12 expression change (BCP_treatment),[1],Down
same,H3C6 expression change (BCP_treatment),[1],Down
same,H4C8 expression change (BCP_treatment),[1],Down
same,HPDL expression change (BCP_treatment),[1],Down
same,ISYNA1 expression change (BCP_treatment),[1],Down
same,KCNH3 expression change (BCP_treatment),[1],Down
same,KHDC1 expression change (BCP_treatment),[1],Down
same,LYSMD4 expression change (BCP_treatment),[1],Down
same,MAFA expression change (BCP_treatment),[1],Down
same,MAGEB17 expression change (BCP_treatment),[1],Down
same,MAP1A expression change (BCP_treatment),[1],Down
same,MNX1 expression change (BCP_treatment),[1],Down
same,MYB expression change (BCP_treatment),[1],Down
same,MYEOV expression change (BCP_treatment),[1],Down
same,NES expression change (BCP_treatment),[1],Down
same,NR6A1 expression change (BCP_treatment),[1],Down
same,PAQR5 expression change (BCP_treatment),[1],Down
same,PGF expression change (BCP_treatment),[1],markedly downregulated and Down
same,PI3 expression change (BCP_treatment),[1],Down
same,RAPGEF3 expression change (BCP_treatment),[1],Down
same,RASD2 expression change (BCP_treatment),[1],Down
same,RHBDL3 expression change (BCP_treatment),[1],Down
same,S100A3 expression change (BCP_treatment),[1],Down
same,SCIN expression change (BCP_treatment),[1],Down
same,SHC3 expression change (BCP_treatment),[1],Down
same,SLC4A11 expression change (BCP_treatment),[1],Down
same,SP6 expression change (BCP_treatment),[1],Down
same,STXBP6 expression change (BCP_treatment),[1],Down
same,SYN3 expression change (BCP_treatment),[1],Down
same,TMEM120B expression change (BCP_treatment),[1],Down
same,TMEM158 expression change (BCP_treatment),[1],Down
same,TNFSF15 expression change (BCP_treatment),[1],Down
same,TRNP1 expression change (BCP_treatment),[1],Down
same,VAMP1 expression change (BCP_treatment),[1],Down
same,ZBED6CL expression change (BCP_treatment),[1],Down
same,ZNF284 expression change (BCP_treatment),[1],Down
same,ZNF341 expression change (BCP_treatment),[1],Down
same,number of downregulated genes,[2],245
same,number of upregulated genes,[2],188
same,total number of DEGs,[2],433
same,logFC ABLIM2,"gene ABLIM2, BCP vs control HepG2, RNA-seq",1.01
same,change ABLIM2,"gene ABLIM2, DEG direction, BCP vs control HepG2",Up
same,logFC ACKR3,"gene ACKR3, BCP vs control HepG2, RNA-seq",0.6675
same,change ACKR3,"gene ACKR3, DEG direction, BCP vs control HepG2",Up
same,logFC ACYP2,"gene ACYP2, BCP vs control HepG2, RNA-seq",-0.6093
same,change ACYP2,"gene ACYP2, DEG direction, BCP vs control HepG2",Down
same,logFC ADGRD1,"gene ADGRD1, BCP vs control HepG2, RNA-seq",0.8304
same,change ADGRD1,"gene ADGRD1, DEG direction, BCP vs control HepG2",Up
same,logFC ADGRG6,"gene ADGRG6, BCP vs control HepG2, RNA-seq",0.7321
same,change ADGRG6,"gene ADGRG6, DEG direction, BCP vs control HepG2",Up
same,logFC AKR1B1,"gene AKR1B1, BCP vs control HepG2, RNA-seq",-0.8932
same,change AKR1B1,"gene AKR1B1, DEG direction, BCP vs control HepG2",Down
same,logFC ALDH1L2,"gene ALDH1L2, BCP vs control HepG2, RNA-seq",0.8642
same,change ALDH1L2,"gene ALDH1L2, DEG direction, BCP vs control HepG2",Up
same,logFC ALPI,"gene ALPI, BCP vs control HepG2, RNA-seq",0.9718
same,change ALPI,"gene ALPI, DEG direction, BCP vs control HepG2",Up
same,logFC ALPL,"gene ALPL, BCP vs control HepG2, RNA-seq",1.081
same,change ALPL,"gene ALPL, DEG direction, BCP vs control HepG2",Up
same,logFC ALYREF,"gene ALYREF, BCP vs control HepG2, RNA-seq",-0.7733
same,change ALYREF,"gene ALYREF, DEG direction, BCP vs control HepG2",Down
same,logFC AMPD2,"gene AMPD2, BCP vs control HepG2, RNA-seq",-0.8008
same,change AMPD2,"gene AMPD2, DEG direction, BCP vs control HepG2",Down
same,logFC ANKFN1,"gene ANKFN1, BCP vs control HepG2, RNA-seq",-1.752
same,change ANKFN1,"gene ANKFN1, DEG direction, BCP vs control HepG2",Down
same,logFC ANO2,"gene ANO2, BCP vs control HepG2, RNA-seq",1.524
same,change ANO2,"gene ANO2, DEG direction, BCP vs control HepG2",Up
